We go through one molecule from US20230041065A1, “METHODS FOR GENERATING HEMATOPOIETIC STEM CELLS” (The Brigham and Women`s Hospital, Inc., priority 2019, published 2023).

Experiment [1] concerns donor-derived blood lineages. The experiment can be described thus: Functional and phenotypic analyses of donor-derived blood lineages in primary transplant. The class given is in vivo, mouse. Here is the method:
Pulsating blood vessels like conditions were stimulated in vitro using Flexcell FX-4000 machine. To analyze roles of pharmacological targets in regulating the endothelial-to-HSC transition, mouse embryo-derived AGM or whole mouse embryo were exposed ex vivo with biomechanical stretching, chemicals, or drugs. Next, hematopoietic colony formation assays were performed by incubating mouse AGM-derived cells in StemCell M3434 media for seven days. Serial transplantation of AGM-derived HSCs in lethally irradiated SJL mice were performed. The stem cell frequency upon biomechanical stretching was analyzed using a limiting dilution assay. To characterize properties of AGM-HSC-derived blood cells in primary transplants, percentage chimerism and reconstitution was measured using FACS, globin transcripts were analyzed using quantitative reverse transcriptase-PCR, myeloperoxidase amount was measured using PicoKine ELISA kit, TCR-β rearrangement was analyzed using PCR for TCR-β locus, pre-immune IG detection was analyzed using Thermo-Fisher Mouse Ig Isotyping kit, and delayed-type hypersensitivity was analyzed by injecting sheep RBC (Rockland Immunochemicals) in the footpad of pre-sensitized mice.
FACS was used to sort erythroid precursors (Cd45.2^+, Ter119^+, Cd71^+) from the unlysed bone marrow isolated from AGM-transplanted mice. Total RNA was isolated using the RNAeasy Minikit (QIAGEN) and cDNA synthesis performed using Superscript III (Invitrogen). Quantitative real-time PCR was performed using SYBR Green (QuantaBio) on an MX3000P machine with the indicated primers (Sankaran et al., 2009). We normalized the expression to that of glyceraldehyde-3-phosphate-dehydrogenase (Gapdh) (Ochida et al., 2010).
Neutrophils (Cd45.2^+, Gr1^+, Mac1^+) were FACS sorted from the isolated bone marrow of 16 week-primary transplanted mice and cultured in IMDM with 10% FBS overnight (500,000 cells/mL) in 24-well plates. Supernatant was collected and the MPO concentration measured using the Mouse MPO/Myeloperoxidase PicoKine™ ELISA Kit (Boster). The MPO concentration was also measured in blood serum.
T cells (Cd45.2^+, Cd3^+) and myeloid cells (Cd45.2^+, Mac1^+) were FACS sorted from the splenocytes of 16 week-primary transplanted mice. Next, genomic DNA was extracted, and PCR performed for DH (β2.1-JH (32.7 rearrangements within TCR-β locus. Our samples were denatured (94° C., 1 min), annealed (63° C., 2 mins) and extended (72° C., 2 mins) for 35 cycles. Primer sequences are as follows:
Transplant mice were sensitized with sheep red blood cells (sRBC, 10^9 cells/mL, 50 μL per site, Rockland Immunochemicals) through subcutaneous (lower back) and intradermal injections (right footpad). […] After 48 hours of the challenge, the footpad thickness was measured with a micro-caliper. […]

The subject of a further experiment is Dnmt3b. Kind of experiment: Dnmt3b protein level in nuclear fractions of E11.5 AGM cells. The class given is cell-based, mouse. Here is the method: RNA-sequencing analyses were performed to measure gene expression patterns in mouse AGM treated with cyclic strain or pharmacological modulators. Using computational algorithms, hierarchical clustering was performed of differentially expressed genes as well as measured their overrepresented biological processes and pathways. Gene expression clusters of differentially expressed genes were analyzed and their mean expression level across cell populations compared. Next, Venn comparison of up- and down-genes was constructed to analyze candidate(s) important for cyclic strain- or pharmacological modulator(s)-mediated the endothelial-to-HSC transition. Furthermore, Dnmt3b and Dnmt3a protein expressions were analyzed in nuclear fractions of mouse AGM cells using EqiQuick assay kits. Data are presented as mean±s.d. unless otherwise noted. Statistical analyses were performed by paired or un-paired Student's t-tests. Significance was set at P<0.05.
Nuclear extracts from AGM explants were harvested using an EpiQuik Nuclear Extraction Kit (Epigentek Group Inc.). Dnmt3b and Dnmt3a protein levels were analyzed using a colorimetric EpiQuik Assay Kit (Epigentek Group Inc.), according to the manufacturer's instructions. Concentration of Dnmt3b and Dnmt3a is relative to 1 μg of nuclear extract proteins.

For experiment [2], the system named is human iPSC-derived hemogenic endothelial cells. The experiment can be described thus: Yoda1 treatment of human iPSC-derived hemogenic endothelial cells: EHT and gene expression. It counts as cell-based. The text has this:
To determine the role of Dnmt3b in the EHT, we analyzed the endothelial and hematopoietic gene expression levels using whole transcriptome analyses. […] To consolidate our findings, we further independently measured the transcript levels of endothelial and hematopoietic genes. […] In summary, pulsation-mediated Piezo1 activation enhances Dnmt3b expression to repress endothelial genes, stimulating the endothelial-to-HSC transition. To analyze the conserved role of PIEZO1-mediated mechanosensitive mechanisms in human hematopoiesis, we employed directed differentiation of constitutive RUNX1c:tdTomato human induced pluripotent stem cells (iPSCs) to hemogenic endothelial cells, and treated such hemogenic endothelial cells with Yoda1.
Embryoid body and hemogenic endothelium differentiation was performed as described in (Sugimura et al. 2017; Ditadi et al. 2015). Briefly, hiPSC colonies were dissociated with 0.05% trypsin for 5 min at 37° C., washed with PBS+2% FBS, and resuspended in StemPro-34 (Invitrogen, 10639-011) supplemented with L-glutamine (2 mM), penicillin/streptomycin ([…]), ascorbic acid (1 mM), human holo-Transferrin ([…], Sigma T0665), monothioglycerol (MTG, 0.4 mM), BMP4 (10 ng/ml), and Y-27632 (10 μM). Five million cells were seeded into 10 cm dishes (Ezsphere, Asahi Glass) for the spheroid formation. On Day 1, bFGF (5 ng/ml) and BMP4 (10 ng/ml) was added to the medium. On Day 2, the media was changed with the StemPro-34 supplemented with SB431542 (6 μM), CHIR99021 (3 μM), bFGF (5 ng/ml), and BMP4 (10 ng/ml). On Day 3, the medium was replaced with StemPro-34 supplemented with VEGF (15 ng/ml) and bFGF (10 ng/ml). On day 6, the medium was changed to StemPro-34 supplemented with bFGF (5 ng/ml), VEGF (15 ng/ml), interleukin (IL)-6 (10 ng/ml), IGF-1 (25 ng/ml), IL-11 (5 ng/ml), SCF (50 ng/ml) and EPO (2IU). The cells were maintained in a 5% CO2, 5% O2 and 95% humidity incubator. All cytokines were purchased from Peprotech.

Setting [3] is: human iPSC-derived hemogenic endothelial cells.

For the molecule `Clc1cccc(Cl)c1CSc1nnc(-c2cnccn2)s1` [Yoda1, 2-[5-[[(2,6-Dichlorophenyl)methyl]thio]-1,3,4-thiadiazol-2-yl]-pyrazine], the “expression of adult and embryonic hemoglobin types in donor erythroid cells” value in experiment [1] (bone marrow Cd71+Ter119+ sorted cells, primary transplant) is “reconstitutes to red cells containing adult hemoglobin”. Besides, in experiment [1] (bone marrow Gr1+Mac1+ sorted cells, overnight culture, ELISA), the “myeloperoxidase (MPO) of donor neutrophils” value is “reconstitute to functional myeloid cells displaying sufficient MPO levels”. Moreover, the delayed-type hypersensitivity result in experiment [1] (primary transplant mice, footpad) is “possess T-cell mediated immune response”. Also, the “TCRβ locus rearrangement of donor T cells” value in experiment [1] (spleen-sorted Cd3+ T cells) is reported as “display T-cell receptor β (TCR β) rearrangement”. Also, the Dnmt3b protein expression entry in the experiment on Dnmt3b was “specifically stimulates Dnmt3b protein expression levels”. Moreover, the human endothelial-to-hematopoietic transition entry in experiment [2] (RUNX1c:tdTomato human iPSC-derived hemogenic endothelial cells) is given as “stimulated the human endothelial-to-hematopoietic transition”. In experiment [2] (setting [3]), the DNMT3A expression entry is given as “not DNMT3A expression”; the DNMT3B expression entry is given as “enhanced DNMT3B expression”; the “expression of endothelial genes (VEGFA, HEY2, GPR116, GNA13, CDH5, PLXND1)” value is “silenced endothelial genes”; the “expression of hematopoietic genes (RUNX1, SPI1, CEBPA, TAL1, GATA2)” value is listed as “induced the expression of hematopoietic genes”.
